{"source": "patent US20210361565A1", "about": "“Oral Pharmaceutical Composition of an NK-1 Antagonist” (Intervet Inc., priority 2017, published 2021)", "key": {"[1]": {"system": "centrally acting emetogens (apomorphine IV) and peripherally acting emetogens (syrup of ipecac orally)", "settings": "dogs; cited from earlier work"}, "[2]": {"system": "chemotherapy induced nausea and vomiting", "settings": "humans; cited from earlier work"}, "[3]": {"system": "apomorphine-induced emesis", "assay": "Apomorphine-induced emesis model", "format": "in vivo, dog", "settings": "single oral dose 5 mg/kg; FIGS. 5A-5B", "source_text": "Apomorphine-induced emesis model is a well-established canine model to investigate antiemetic actions of new compounds and has been used in studies investigating new NK1 antagonists (Furukawa et al. Biol Pharm Bull 36:974-979, 2013) as well as Cerenia and other antiemetic drugs used in dogs (Sedlacek et al. J Vet Pharmacol Therap 31:533-537, 2008).\nThe canine model of apomorphine-induced emesis is a well-established model to investigate antiemetic actions of new compounds and has been used in studies investigating new NK1 antagonists (Furukawa et al. Biol Pharm Bull 36:974-979, 2013) as well as Cerenia and other antiemetic drugs used in dogs (Sedlacek et al. J Vet Pharmacol Therap 31:533-537, 2008). This model was used to evaluate the antiemetic activity of telmapitant in non-aqueous solution formulations and solid formulations (FIGS. 4A and 4B). The onset of action (FIGS. 4A and 4B) as well as the duration of activity (FIGS. 5A and 5B) were investigated after a single oral administration. Intravenous (IV) administration of apomorphine (emetogenic challenge 0.03 mg/kg) was delivered to all individuals 2 h, 4 h, 6 h, 8 h, 24 h, and 120 h (FIGS. 4A and 4B) or 1 d, 3 d, 5 d, 6 d, and 7 d (FIGS. 5A and 5B). […] Any emetic events (vomiting episodes and/or retches) following each emetogenic challenge were recorded for 20 min. […]"}}}
{"smiles": "COc1ccc(C(C)(C)C)cc1CN[C@H]1C2CCN(CC2)[C@H]1C(c1ccccc1)c1ccccc1", "note": "[maropitant]", "values": [{"measurement": "antiemetic effectiveness against emetogens", "setting": "[1]", "result": "effective"}]}
{"smiles": "C[C@@H](OC[C@@]1(c2ccccc2)CC[C@]2(CCC(=O)N2)CN1)c1cc(C(F)(F)F)cc(C(F)(F)F)c1", "note": "[rolapitant]", "values": [{"measurement": "efficacy and safety for prevention of chemotherapy induced nausea and vomiting", "setting": "[2]", "result": "efficacious and safe"}]}
{"smiles": "C[C@@H](OC[C@@]1(c2ccccc2)CC[C@]2(CN1)NC(=O)NC2=O)c1cc(C(F)(F)F)cc(C(F)(F)F)c1", "note": "[telmapitant, (5R,8S)-8-[[(1R)-1-[3,5-bis(trifluoromethyl)phenyl]ethoxy]methyl]-8-phenyl-1,3,9-triazaspiro[4.5]decane-2,4-dione]", "values": [{"measurement": "antiemetic data at 5 mg/kg versus 7 mg/kg", "setting": "[3]", "result": "not significantly different"}]}
